Starred links: 1 amine or outer side, 2 acyl side, 3 side chain; linkers in the order of their positions; H or OH if unused. Non-standard residues stand in square brackets, D forms with d. Residues, ends and D or L forms follow the SMILES beside them. X3 = O=C(CNC(=S)[C@H](Cc1ccccc1)N[*:1])[*:2]; Phe(3-Cl) = N[C@@H](Cc1cccc(Cl)c1)C(=O)O; Phe(4-NH2) = Nc1ccc(C[C@H](N)C(=O)O)cc1; 2Nal = N[C@@H](Cc1ccc2ccccc2c1)C(=O)O; Arg(Me) = CNC(=N)NCCC[C@H](N)C(=O)O; 4Pal = N[C@@H](Cc1ccncc1)C(=O)O; Cha = N[C@@H](CC1CCCCC1)C(=O)O; azaGly = NNC(=O)O
molecular target: T1, hOT7T175 (Homo sapiens, UniProt Q969F8, L364H); assay: Intracellular Ca ion level-increasing activity using FLIPR (180 seconds; specific activity to Metastin (1-54)); type: cell-based; settings: hOT7T175/CHO, relative to Metastin (1-54) = 1
T1 construct: expressed in transfected cells
T1 sequence (Q969F8 whole entry L364H): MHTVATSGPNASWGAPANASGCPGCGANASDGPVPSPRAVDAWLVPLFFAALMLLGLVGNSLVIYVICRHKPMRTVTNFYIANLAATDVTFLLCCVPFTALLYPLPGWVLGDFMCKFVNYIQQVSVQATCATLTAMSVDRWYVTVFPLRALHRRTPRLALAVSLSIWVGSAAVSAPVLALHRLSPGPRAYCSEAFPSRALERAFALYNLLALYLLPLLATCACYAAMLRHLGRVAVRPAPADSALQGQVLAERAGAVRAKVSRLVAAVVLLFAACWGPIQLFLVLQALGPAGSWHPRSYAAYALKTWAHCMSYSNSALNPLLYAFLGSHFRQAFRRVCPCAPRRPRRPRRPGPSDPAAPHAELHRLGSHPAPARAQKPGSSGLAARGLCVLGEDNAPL

Going from `CNC(=N)NCCC[C@H](NC(=O)[C@H](CC(C)C)NC(=O)NNC(=O)[C@H](Cc1ccccc1)NC(=O)[C@H](CO)NC(=O)[C@H](CC(N)=O)NC(=O)[C@H](Cc1cccc(Cl)c1)NC(=O)[C@H](CC(N)=O)NC(=O)[C@H](N)Cc1ccc(O)cc1)C(=O)N[C@@H](Cc1ccccc1)C(N)=O` [Compound No. 248, D-Tyr-Asn-Phe(3Cl)-Asn-Ser-Phe-AzaGly-Leu-Arg(Me)-Phe-NH2] (H-[dY]N[Phe(3-Cl)]NSF[azaGly]L[Arg(Me)]F-NH2) to `CNC(=N)NCCC[C@H](NC(=O)[C@H](CC(C)C)NC(=O)NNC(=O)[C@H](Cc1ccccc1)NC(=O)[C@H](CO)NC(=O)[C@H](CC(N)=O)NC(=O)[C@H](Cc1ccc(N)cc1)NC(=O)[C@H](CC(N)=O)NC(=O)[C@H](N)Cc1ccc(O)cc1)C(=O)N[C@@H](Cc1ccccc1)C(N)=O` [Compound No. 250, D-Tyr-Asn-Phe(4NH2)-Asn-Ser-Phe-AzaGly-Leu-Arg(Me)-Phe-NH2] (H-[dY]N[Phe(4-NH2)]NSF[azaGly]L[Arg(Me)]F-NH2), the “Specific Act. (intracellular Ca ion level-increasing activity, specific activity to Metastin (1-54))” value falls from 2 to 1.

First: CC(C)C[C@H](NC(=O)CNC(=O)[C@H](Cc1ccccc1)NC(=O)[C@H](CO)NC(=O)[C@H](CC(N)=O)NC(=O)[C@H](Cc1c[nH]c2ccccc12)NC(=O)[C@H](CC(N)=O)NC(=O)[C@@H](N)Cc1ccc(O)cc1)C(=O)N[C@@H](CCCNC(=N)N)C(=O)N[C@@H](Cc1ccccc1)C(N)=O [Compound No. 3, reference compound]
Second: CC(C)C[C@H](NC(=O)CNC(=S)[C@H](Cc1ccccc1)NC(=O)[C@H](CO)NC(=O)[C@H](CC(N)=O)NC(=O)[C@H](Cc1c[nH]c2ccccc12)NC(=O)[C@H](CC(N)=O)NC(=O)[C@@H](N)Cc1ccc(O)cc1)C(=O)N[C@@H](CCCNC(=N)N)C(=O)N[C@@H](Cc1ccccc1)C(N)=O [Compound No. 166, Tyr-Asn-Trp-Asn-Ser-PheΨ(CSNH)Gly-Leu-Arg-Phe-NH2] (H-YNWNS[X3]LRF-NH2)
The “Specific Act. (intracellular Ca ion level-increasing activity, specific activity to Metastin (1-54))” value of the first is higher: 10 for the first, 5 for the second.

First: CNC(=N)NCCC[C@H](NC(=O)[C@H](CC(C)C)NC(=O)NNC(=O)[C@H](Cc1ccccc1)NC(=O)[C@H](CO)NC(=O)[C@H](CC(N)=O)NC(=O)[C@@H](Cc1c[nH]c2ccccc12)NC(=O)[C@@H](CC(N)=O)NC(=O)[C@H](N)Cc1ccc(O)cc1)C(=O)N[C@@H](Cc1ccccc1)C(N)=O [Compound No. 238, D-Tyr-D-Asn-D-Trp-Asn-Ser-Phe-AzaGly-Leu-Arg(Me)-Phe-NH2]
Second: CNC(=N)NCCC[C@H](NC(=O)[C@H](CC(C)C)NC(=O)CNC(=O)[C@H](Cc1ccccc1)NC(=O)[C@H](CO)NC(=O)[C@H](CC(N)=O)NC(=O)[C@@H](Cc1c[nH]c2ccccc12)NC(=O)[C@H](CC(N)=O)NC(=O)[C@@H](N)Cc1ccc(O)cc1)C(=O)N[C@@H](Cc1ccccc1)C(N)=O [Compound No. 143, Tyr-Asn-D-Trp-Asn-Ser-Phe-Gly-Leu-Arg(Me)-Phe-NH2]
The “Specific Act. (intracellular Ca ion level-increasing activity, specific activity to Metastin (1-54))” value of the first is lower: 1 for the first, 3 for the second.

`CC(C)C[C@H](NC(=O)CNC(=O)[C@H](Cc1ccccc1)NC(=O)[C@H](CO)NC(=O)[C@H](CC(N)=O)NC(=O)[C@H](Cc1c[nH]c2ccccc12)NC(=O)[C@H](CC(N)=O)NC(=O)[C@H](Cc1ccc(O)cc1)NC(=O)[C@H](CC(N)=O)NC(=O)[C@@H]1CCCN1C(=O)[C@@H](N)CC(C)C)C(=O)N[C@@H](CCCNC(=N)N)C(=O)N[C@@H](Cc1ccccc1)C(N)=O` [Compound No. 32, reference compound] and `CC(=O)N[C@@H](Cc1ccc(O)cc1)C(=O)N[C@@H](CC(N)=O)C(=O)N[C@@H](Cc1c[nH]c2ccccc12)C(=O)N[C@@H](CC(N)=O)C(=O)N[C@@H](CO)C(=O)N[C@@H](Cc1ccccc1)C(=O)NCC(=O)N[C@@H](CC(C)C)C(=O)N[C@@H](CCCNC(=N)N)C(=O)N[C@@H](Cc1ccccc1)C(N)=O` [Compound No. 30] are the same in “Specific Act. (intracellular Ca ion level-increasing activity, specific activity to Metastin (1-54))” value: 10 for the first, 10 for the second.

First: CNC(=N)NCCC[C@H](NC(=O)[C@H](CC(C)C)NC(=O)CNC(=O)[C@H](CC1CCCCC1)NC(=O)[C@H](CO)NC(=O)[C@H](CC(N)=O)NC(=O)[C@H](Cc1c[nH]c2ccccc12)NC(=O)[C@H](CC(N)=O)NC(=O)[C@H](N)Cc1ccc(O)cc1)C(=O)N[C@@H](Cc1ccccc1)C(N)=O [Compound No. 203, D-Tyr-Asn-Trp-Asn-Ser-Cha-Gly-Leu-Arg(Me)-Phe-NH2] (H-[dY]NWNS[Cha]GL[Arg(Me)]F-NH2)
Second: CC(C)C[C@H](NC(=O)CNC(=O)[C@H](Cc1ccccc1)NC(=O)[C@H](CO)NC(=O)[C@H](CC(N)=O)NC(=O)[C@H](Cc1c[nH]c2ccccc12)NC(=O)[C@H](CC(N)=O)NC(=O)[C@@H](N)Cc1ccc(O)cc1)C(=O)N[C@@H](CCCNC(=N)N)C(=O)N[C@@H](CC1CCCCC1)C(N)=O [Compound No. 112] (H-YNWNSFGLR[Cha]-NH2)
The “Specific Act. (intracellular Ca ion level-increasing activity, specific activity to Metastin (1-54))” value of the first is higher: 10 for the first, 2 for the second.

`CNC(=N)NCCC[C@H](NC(=O)[C@H](CC(C)C)NC(=O)[C@H](C)NC(=O)[C@H](Cc1ccccc1)NC(=O)[C@H](CO)NC(=O)[C@H](CC(N)=O)NC(=O)[C@H](Cc1c[nH]c2ccccc12)NC(=O)[C@H](CC(N)=O)NC(=O)[C@H](N)Cc1ccc(O)cc1)C(=O)N[C@@H](Cc1ccccc1)C(N)=O` [Compound No. 204] (H-[dY]NWNSFAL[Arg(Me)]F-NH2) and `CC(C)C[C@H](NC(=O)CNC(=O)[C@H](Cc1ccccc1)NC(=O)[C@H](CO)NC(=O)[C@H](CC(N)=O)NC(=O)[C@H](Cc1c[nH]c2ccccc12)NC(=O)[C@H](CC(N)=O)NC(=O)[C@@H](N)Cc1ccc(O)cc1)C(=O)N[C@@H](CCCNC(=N)N)C(=O)N[C@@H](Cc1ccncc1)C(N)=O` [Compound No. 17] (H-YNWNSFGLR[4Pal]-NH2) are the same in “Specific Act. (intracellular Ca ion level-increasing activity, specific activity to Metastin (1-54))” value: 5 for the first, 5 for the second.

`CNC(=N)NCCC[C@H](NC(=O)[C@H](CC(C)C)NC(=O)NNC(=O)[C@H](Cc1ccccc1)NC(=O)[C@H](CO)NC(=O)[C@H](CC(N)=O)NC(=O)[C@H](CC1CCCCC1)NC(=O)[C@H](CC(N)=O)NC(=O)[C@H](N)Cc1ccc(O)cc1)C(=O)N[C@@H](Cc1ccccc1)C(N)=O` [Compound No. 190, D-Tyr-Asn-Cha-Asn-Ser-Phe-AzaGly-Leu-Arg(Me)-Phe-NH2] (H-[dY]N[Cha]NSF[azaGly]L[Arg(Me)]F-NH2) and `CNC(=N)NCCC[C@H](NC(=O)[C@H](CC(C)C)NC(=O)CNC(=O)[C@H](Cc1ccccc1)NC(=O)[C@H](CO)NC(=O)[C@H](CC(N)=O)NC(=O)[C@H](CC1CCCCC1)NC(=O)[C@H](CC(N)=O)NC(=O)[C@H](N)Cc1ccc(O)cc1)C(=O)N[C@@H](Cc1ccccc1)C(N)=O` [Compound No. 171, D-Tyr-Asn-Cha-Asn-Ser-Phe-Gly-Leu-Arg(Me)-Phe-NH2] (H-[dY]N[Cha]NSFGL[Arg(Me)]F-NH2) are the same in “Specific Act. (intracellular Ca ion level-increasing activity, specific activity to Metastin (1-54))” value: 10 for the first, 10 for the second.

`CNC(=N)NCCC[C@H](NC(=O)[C@H](CC(C)C)NC(=O)NNC(=O)[C@H](Cc1ccccc1)NC(=O)[C@H](CO)NC(=O)[C@H](CC(N)=O)NC(=O)[C@H](Cc1ccccc1)NC(=O)[C@H](N)Cc1ccc(O)cc1)C(=O)N[C@@H](Cc1ccccc1)C(N)=O` [Compound No. 254, D-Tyr-Phe-Asn-Ser-Phe-AzaGly-Leu-Arg(Me)-Phe-NH2] (H-[dY]FNSF[azaGly]L[Arg(Me)]F-NH2) and `CNC(=N)NCCC[C@H](NC(=O)[C@H](CC(C)C)NC(=O)NNC(=O)[C@H](Cc1ccccc1)NC(=O)[C@H](CO)NC(=O)[C@H](CC(N)=O)NC(=O)[C@@H](NC(=O)[C@H](CC(N)=O)NC(=O)[C@H](N)Cc1ccc(O)cc1)C(C)C)C(=O)N[C@@H](Cc1ccccc1)C(N)=O` [Compound No. 234, D-Tyr-Asn-Val-Asn-Ser-Phe-AzaGly-Leu-Arg(Me)-Phe-NH2] (H-[dY]NVNSF[azaGly]L[Arg(Me)]F-NH2) are the same in “Specific Act. (intracellular Ca ion level-increasing activity, specific activity to Metastin (1-54))” value: 1 for the first, 1 for the second.

Going from `CC(C)C[C@H](NC(=O)CNC(=O)[C@H](Cc1ccccc1)NC(=O)[C@H](CO)NC(=O)[C@H](CC(N)=O)NC(=O)[C@H](Cc1c[nH]c2ccccc12)NC(=O)[C@H](CC(N)=O)NC(=O)[C@@H](N)Cc1ccc(O)cc1)C(=O)N[C@@H](CCCNC(=N)N)C(=O)N[C@@H](Cc1ccc2ccccc2c1)C(N)=O` [Compound No. 110] (H-YNWNSFGLR[2Nal]-NH2) to `CC(C)C[C@H](NC(=O)CNC(=O)[C@H](Cc1ccc(F)cc1)NC(=O)[C@H](CO)NC(=O)[C@H](CC(N)=O)NC(=O)[C@H](Cc1c[nH]c2ccccc12)NC(=O)[C@H](CC(N)=O)NC(=O)[C@@H](N)Cc1ccc(O)cc1)C(=O)N[C@@H](CCCNC(=N)N)C(=O)N[C@@H](Cc1ccccc1)C(N)=O` [Compound No. 154, Tyr-Asn-Trp-Asn-Ser-Phe(4F)-Gly-Leu-Arg-Phe-NH2], the “Specific Act. (intracellular Ca ion level-increasing activity, specific activity to Metastin (1-54))” value falls from 20 to 5.

`CNC(=N)NCCC[C@H](NC(=O)[C@H](CC(C)C)NC(=O)CNC(=O)[C@H](Cc1ccccc1)NC(=O)[C@H](CO)NC(=O)[C@H](CC(N)=O)NC(=O)[C@H](Cc1c[nH]c2ccccc12)NC(=O)[C@H](N)CC(N)=O)C(=O)N[C@@H](Cc1ccccc1)C(N)=O` [Compound No. 216] (H-[dN]WNSFGL[Arg(Me)]F-NH2) and `CCCC[C@H](NC(=O)CNC(=O)[C@H](Cc1ccccc1)NC(=O)[C@H](CO)NC(=O)[C@H](CC(N)=O)NC(=O)[C@H](Cc1c[nH]c2ccccc12)NC(=O)[C@H](CC(N)=O)NC(=O)[C@@H](N)Cc1ccc(O)cc1)C(=O)N[C@@H](CCCNC(=N)N)C(=O)N[C@@H](Cc1ccccc1)C(N)=O` [Compound No. 105, Tyr-Asn-Trp-Asn-Ser-Phe-Gly-Nle-Arg-Phe-NH2] are the same in “Specific Act. (intracellular Ca ion level-increasing activity, specific activity to Metastin (1-54))” value: 1 for the first, 1 for the second.

From patent US8778871B2 (Takeda Pharmaceutical Company Limited, priority 2004, dated 2014)
